Measured values from patent US7371751B2, “Thiazole derivatives” (Hoffmann-La Roche Inc., priority 2003, dated 2008).

biological target: T1, human cannabis CB1 receptor (Homo sapiens, UniProt P21554); experiment: Affinity for cannabinoid CB1 receptors, [3H]-CP-55,940 radioligand binding on HEK cell membrane preparations; conditions: not given
T1 construct: expressed in transfected cells; host or cells: human embryonic kidney (HEK) cells, Semliki Forest Virus system, membrane preparation
Description: The affinity of the compounds of the invention for cannabinoid CB1 receptors was determined using membrane preparations of human embryonic kidney (HEK) cells in which the human cannabis CB1 receptor is transiently transfected using the Semliki Forest Virus system in conjunction with [3H]-CP-55,940 as radioligand. After incubation of a freshly prepared cell membrane preparation with the [3H]-ligand, with or without addition of compounds of the invention, separation of bound and free ligand was performed by filtration over glassfiber filters. Radioactivity on the filter was measured by liquid scintillation counting.

T1 sequence (P21554 whole entry): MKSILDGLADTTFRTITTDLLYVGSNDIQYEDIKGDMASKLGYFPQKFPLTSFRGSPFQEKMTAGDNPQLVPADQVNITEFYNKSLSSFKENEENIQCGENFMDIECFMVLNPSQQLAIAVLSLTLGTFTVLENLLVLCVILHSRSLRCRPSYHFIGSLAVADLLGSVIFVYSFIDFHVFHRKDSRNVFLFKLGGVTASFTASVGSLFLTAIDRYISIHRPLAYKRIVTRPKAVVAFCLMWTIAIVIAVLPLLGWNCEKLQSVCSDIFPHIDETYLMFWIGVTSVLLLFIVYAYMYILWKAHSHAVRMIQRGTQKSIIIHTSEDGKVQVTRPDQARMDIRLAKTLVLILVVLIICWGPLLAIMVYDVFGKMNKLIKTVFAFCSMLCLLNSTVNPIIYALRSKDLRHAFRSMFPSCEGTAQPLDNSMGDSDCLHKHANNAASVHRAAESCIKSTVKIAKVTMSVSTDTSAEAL

O=C(c1csc(N(C(=O)c2ccc(Cl)cc2Cl)c2ccc(Cl)cc2)n1)N1CCCC1 [Example 6, 2,4-Dichloro-N-(4-chloro-phenyl)-N-[4-(pyrrolidine-1-carbonyl)-thiazol-2-yl]-benzamide] and O=C(c1csc(N(C(=O)c2ccc(Cl)cc2Cl)c2ccc(OC(F)(F)F)cc2)n1)N1CCCC1 [Example 147, 2,4-Dichloro-N-[4-(pyrrolidine-1-carbonyl)thiazole-2-yl]-N-(4-trifluoromethoxy-phenyl)-benzamide] are within 1.5-fold of each other in IC50: 610 nM for the first, 490 nM for the second.

COc1ccc(N(C(=O)c2ccc(Cl)cc2Cl)c2nc(C(=O)NCc3ccccc3)cs2)cc1OC [Example 11, 2-[(2,4-Dichloro-benzoyl)-(3,4-dimethoxy-phenyl)-amino]-thiazole-4-carboxylic acidbenzylamide] and COCCN(CCOC)C(=O)c1csc(N(C(=O)c2ccc(Cl)cc2Cl)c2ccc(Cl)cc2)n1 [Example 33, 2-[(4-Chloro-phenyl)-(2,4-dichloro-benzoyl)-amino]-thiazole-4-carboxylic acid bis-(2-methoxy-ethyl)-amide] are within 1.5-fold of each other in IC50: 810 nM for the first, 550 nM for the second.

CC(C)(C)N(CCO)C(=O)c1csc(N(C(=O)c2ccc(Cl)cc2Cl)c2ccc(Cl)cc2)n1 [Example 95, 2-[(4-Chloro-phenyl)-(2,4-dichloro-benzoyl)-amino]-thiazole-4-carboxylic acid tert-butyl-(2-hydroxy-ethyl)-amide] showed an IC50 of 260 nM.

same assay, conditions: affinity for the CB1 receptor; [3H]-CP-55,940 as radioligand; HEK cell membranes; read-out: IC50

Compared with CCOC(=O)c1csc(N(C(=O)c2ccc(Cl)cc2Cl)c2ccc(OC)c(OC)c2)n1 [Example 2, 2-[(2,4-Dichloro-benzoyl)-(3,4-dimethoxy-phenyl)-amino]-thiazole-4-carboxylic acid ethyl ester], COc1ccc(N(C(=O)c2ccccc2Cl)c2nc(C(=O)NC3CCCCC3)cs2)cc1OC [Example 18, 2-[(2-Chloro-benzoyl)-(3,4-dimethoxy-phenyl)-amino]-thiazole-4-carboxylic acidcyclohexylamide] is 1.7-fold higher in IC50: 510 nM for the first, 850 nM for the second. The first is the more potent here.

Compared with CCCCCN(C)C(=O)c1csc(N(C(=O)c2ccc(Cl)cc2Cl)c2ccc(Cl)cc2)n1 [Example 27, 2-[(4-Chloro-phenyl)-(2,4-dichloro-benzoyl)-amino]-thiazole-4-carboxylic acid methyl-pentyl-amide], O=C(NCCc1cnc[nH]1)c1csc(N(C(=O)c2ccc(Cl)cc2Cl)c2ccc(Cl)cc2)n1 [Example 43] is 1.6-fold higher in IC50: 520 nM for the first, 810 nM for the second. The first is the more potent here.

With O=C(c1cnc(N(C(=O)c2ccc(Cl)cc2Cl)c2ccc(Cl)cc2)s1)N1CCSCC1 [Example 138, 2,4-Dichloro-N-(4-chlor-o-phenyl)-N-[5-(thio-morpholine-4-car-bonyl)-thiazol-2-yl]-benz-amide] the IC50 was 430 nM.

system: not given; experiment: not given; conditions: 5, 10 and 20 mg daily; compared to placebo; cited from earlier work

In the case of Cc1c(C(=O)NN2CCCCC2)nn(-c2ccc(Cl)cc2Cl)c1-c1ccc(Cl)cc1 [SR 141716], the body weight is listed as “significantly reduced body weight”.
